[invAb] = inverted abasic unit; m = 2'-O-methyl; r = 2'-OH (RNA); f = 2'-fluoro
Tested on: mSCNN1A mRNA
Test: Screening of ENaCα siNAs in mouse NIH 3T3 cells (quantitative RT-PCR)
Type: cell-based
Parameters: Percent Reduction of the mSCNN1A mRNA relative to a non-targeting control siNA / Mouse % KD (efficacy of ENaCα mRNA knockdown): concentration or dose not given beside the values
Conditions: for Mean (mSCNN1A expression normalized to the level of m36B4) / Percent Reduction of the mSCNN1A mRNA relative to a non-targeting control siNA / Avg ENaCα Expression (mSCNN1A) / Avg 36B4 Expression: mouse NIH 3T3 cells, n = 3; for Mean (mSCNN1A expression normalized to the level of m36B4) / Percent Reduction of the mSCNN1A mRNA relative to a non-targeting control siNA / Avg 36B4 Expression: 24 hours post-transfection; for Avg ENaCα Expression (mSCNN1A): harvested 24 hours post-transfection; for Avg 36B4 Expression: housekeeping gene used for normalisation; for IC50 / Mouse % KD (efficacy of ENaCα mRNA knockdown): mouse cell line; for IC50: dose response, read-out: Mouse IC50 (potency of ENaCα mRNA knockdown); for Mouse % KD (efficacy of ENaCα mRNA knockdown): summary
Procedure: siNA constructs (Table 1b) may be tested for efficacy in reducing ENaC RNA expression in, for example, A549 human lung carcinoma cells. A549 (human; ATCC cat# CCL-185) cells were cultured at 37° C. in the presence of 5% CO2 and grown in Ham's F12K medium with 2 mM L-glutamine adjusted to contain 1.5 g/L sodium bicarbonate and supplemented with fetal bovine serum at a final concentration of 10% and 100 U/mL penicillin. The A549 cells were plated approximately 24 hours before transfection in 96-well plates at 7,500 cells/well, 100 μl/well. After 24 hours complexes containing siNA and Lipofectamine 2000 (Invitrogen) were created as follows: a solution of Lipofectamine 2000 in OPTI-MEM was prepared containing Lipofectamine 2000 at a final concentration of 14 μg/ml. In parallel, solutions of the siNAs were prepared in OPTI-MEM at a final concentration of 150 nM. After both solutions were incubated at 20° C. for 20 minutes an equal volume of the siNA solutions and the Lipofectamine 2000 solution were added together for each of the siNAs. The resultant solution has the siNAs at a final concentration of 75 nM and Lipofectamine 2000 at a final concentration of 7 μg/ml. This solution was incubated at 20° C. for 20 minutes. After incubation 50 μl of the solution were added to each of the wells (in triplicate). The final concentration of siNA in each well was 25 nM and the final concentration of Lipofectamine 2000 in each well was 2.33 μg/ml. The plates were incubated for 48 hours with no change of media before harvesting. Dose response curves were determined in a similar manner with each concentration being done in triplicate and maintaining a constant amount of Lipofectamine 2000 in each transfection.
A series of probes and primers were used to detect the various mRNA transcripts of the genes of ENaCa and GAPDH in mouse, rat, and human cell lines. The assays were performed on an ABI 7500 instrument, according to the manufacturer's instructions. Within each experiment, the baseline was set in the exponential phase of the amplification curve, and based on the intersection point of the baselines with the amplification curve, a Ct value was assigned by the instrument. This Ct value was then assigned a QTY value based on the Standard Curve. The standard curve in the various experiments herein used 1 ng to 300 ng of RNA extracted from the same cell line used for the experimental transfections.
All IC50 values were calculated from the data using GraphPad Prizm software, specifically a sigmoidal, variable slope curve for simple ligand binding. Also, unless otherwise indicated, all calculations of the efficacy and potency (e.g., % knockdown) of the siNAs were done relative to a non-targeting control siNA. If reported, P-values were computed using The Students t-test, including the Welch Correction for unequal variances.
In all of the calculations of the % knock-down of mRNA, the calculation was made relative to the normalized level of expression of the gene of interest in the samples treated with the non-targeting control (NTC) unless otherwise indicated. The gene of interest expression level was divided by the level of expression of GAPDH or 36B4 (depending on the species) in each sample. The three replicates for each condition in each experiment were averaged and the standard deviation of those samples was calculated. The following formula was then used to calculate the % of knock-down of the gene of interest:
The ENaCα siNAs were designed and synthesized as described previously. The siNAs were screened in three cell lines. Human A549 cells, mouse NIH 3T3 and Rat H-4-II-E cells. The data from the screen of ENaCa siNAs in all three species is shown in Tables 3a, 3b, 4a, 4b, 5a, and 5b and a summary of the data for certain siNA molecules is presented in Table 6. Each screen was performed at 24 hrs. The decision to use this time point was based upon the degree of knockdown of the mRNA seen at that time point.

Substance | Mean (mSCNN1A expression normalized to the level of m36B4) | Percent Reduction of the mSCNN1A mRNA relative to a non-targeting control siNA [%] | Avg ENaCα Expression (mSCNN1A) | Avg 36B4 Expression | IC50 [nM] | Mouse % KD (efficacy of ENaCα mRNA knockdown) [%]
B GccAuccGccuGGuGuGcu TTB / AGCAcAccAGGcGGAuGGcUU (sense GCCAUCCGCCUGGUGUGCUTT; antisense AGCACACCAGGCGGAUGGCUU; siRNA; sense: DNA at AGT, 2'-fluoro at CU, [invAb] at 5' end, 3' end, backbone not given here; antisense: sugars from the 5' end rrrmfmffmmmfmmrfmmfmm, backbone not given here) [Site 310] | 0.20 | 16.6 | 3.19 | 16.02 |  | 
B GcuGuGccuAcAucuucuA TTB / UAGAAGAuGuAGGcAcAGcUU (sense GCUGUGCCUACAUCUUCUATT; antisense UAGAAGAUGUAGGCACAGCUU; siRNA; B caps on sense ends, letter-case modifications not given here, further chemistry not given here) [Site 1388] | 0.04 | 73.4 | 0.90 | 24.18 | 1.9 | 73
B GuGGcuGuGccuAcAucuu TTB / AAGAuGuAGGcAcAGccAcUU (sense GUGGCUGUGCCUACAUCUUTT; antisense AAGAUGUAGGCACAGCCACUU; siRNA; sense: DNA at AGT, 2'-fluoro at CU, [invAb] at 5' end, 3' end, backbone not given here; antisense: sugars from the 5' end rrrmfmfmmmfmfmmffmfmm, backbone not given here) [Site 1385] | 0.13 | 4.4 | 2.95 | 22.75 |  | 
B GuGuGGcuGuGccuAcAuc TTB / GAUGuAGGcAcAGccAcAcUU (sense GUGUGGCUGUGCCUACAUCTT; antisense GAUGUAGGCACAGCCACACUU; siRNA; B caps on sense ends, letter-case modifications not given here, further chemistry not given here) [Site 1383] | 0.04 | 82.4 | 0.91 | 14.23 | 3 | 82
B GuccAAccuGGGcAGccAG TTB / CUGGcuGcccAGGuuGGAcUU (sense GUCCAACCUGGGCAGCCAGTT; antisense CUGGCUGCCCAGGUUGGACUU; siRNA; sense: DNA at AGT, 2'-fluoro at CU, [invAb] at 5' end, 3' end, backbone not given here; antisense: sugars from the 5' end rmmmffmfffmmmffmmmfmm, backbone not given here) [Site 1743] | 0.13 | 6.7 | 2.87 | 22.47 |  | 
B cAGAGcAGAAuGAcuucAu TTB / AUGAAGucAuucuGcucuGUU (sense CAGAGCAGAAUGACUUCAUTT; antisense AUGAAGUCAUUCUGCUCUGUU; siRNA; sense: DNA at AGT, 2'-fluoro at CU, [invAb] at 5' end, 3' end, backbone not given here; antisense: sugars from the 5' end rrrmmmffmffffmffffmmm, backbone not given here) [Site 1100] | 0.24 | −1.5 | 3.43 | 14.25 |  | 
B cAcAAccGcAuGAAGAcGG TTB / CCGucuucAuGcGGuuGuGUU (chain 1 CACAACCGCAUGAAGACGGTT; chain 2 CCGUCUUCAUGCGGUUGUGUU; siRNA; chain 1: DNA at AGT, 2'-fluoro at CU, [invAb] at 5' end, 3' end, backbone not given here; chain 2: sugars from the 5' end rrrfffffmfmfmmffmfmmm, backbone not given here) [Site 334] | 0.21 | 12.3 | 3.57 | 16.98 |  | 
B cAcuccuGcuuccAGGAGA TTB / UCUccuGGAAGcAGGAGuGUU (sense CACUCCUGCUUCCAGGAGATT; antisense UCUCCUGGAAGCAGGAGUGUU; siRNA; sense: DNA at AGT, 2'-fluoro at CU, [invAb] at 5' end, 3' end, backbone not given here; antisense: sugars from the 5' end rrrfffmmmmmfmmmmmfmmm, backbone not given here) [Site 1351] | 0.22 | 9.6 | 2.56 | 11.91 |  | 
B cGcAuGAAGAcGGccuucu TTB / AGAAGGccGucuucAuGcGUU (chain 1 CGCAUGAAGACGGCCUUCUTT; chain 2 AGAAGGCCGUCUUCAUGCGUU; siRNA; chain 1: DNA at AGT, 2'-fluoro at CU, [invAb] at 5' end, 3' end, backbone not given here; chain 2: sugars from the 5' end rrrmmmffmfffffmfmfmmm, backbone not given here) [Site 340] | 0.23 | 5.4 | 3.35 | 14.93 |  | 
B ccAuccGccuGGuGuGcuc TTB / GAGcAcAccAGGcGGAuGGUU (chain 1 CCAUCCGCCUGGUGUGCUCTT; chain 2 GAGCACACCAGGCGGAUGGUU; siRNA; chain 1: DNA at AGT, 2'-fluoro at CU, [invAb] at 5' end, 3' end, backbone not given here; chain 2: sugars from the 5' end rrrfmfmffmmmfmmmfmmmm, backbone not given here) [Site 311] | 0.23 | 4.6 | 3.83 | 16.80 |  | 
B ccGcAuGAAGAcGGccuuc TTB / GAAGGccGucuucAuGcGGUU (chain 1 CCGCAUGAAGACGGCCUUCTT; chain 2 GAAGGCCGUCUUCAUGCGGUU; siRNA; chain 1: DNA at AGT, 2'-fluoro at CU, [invAb] at 5' end, 3' end, backbone not given here; chain 2: sugars from the 5' end rrrmmffmfffffmfmfmmmm, backbone not given here) [Site 339] | 0.35 | −44.9 | 5.05 | 14.61 |  | 

— US20110288154A1, “RNA Interference Mediated Inhibition of Epithelial Sodium Channel (ENaC) Gene Expression Using Short Interfering Nucleic Acid (siNA)” (MERCK & CO., INC., priority 2008, published 2011)
